Results on 1 compound are retold here after patent US20230143751A1, “Aromatic Compound And Use Thereof In Preparing Antineoplastic Drugs” (Shanghai Zheye Biotechnology Co. Ltd., priority 2020, published 2023).

Molecules are shown by their SMILES. Like-named read-outs stand apart in the source and are kept apart here.

Data set [1] deals with MIA PaCa-2-derived xenograft tumor. Description: Pharmacodynamic effect study of MIA PaCa-2-derived xenograft tumor model (test 11). In kind it is in vivo, nude mice. The settings on record: MIA PaCa-2 xenograft, 20 mg/kg i.g. QD×21 days. The protocol: Animal species and number: Balb/c Nude; 6 animals per group.
Test samples: Compound 3-2, and Compound TM-1.
Test groups: blank solvent control group;
Compound 3-2 (20 mg/kg, i.g., QD×21 days);
Compound TM-1 (20 mg/kg, i.g., QD×21 days).
Animal model establishment: MIA PaCa-2 tumor cells in logarithmic growth phase were cultured in vitro and collected, and inoculated subcutaneously into the right back of nude mice at a quantity of 5×10^6 cells/each. When the tumor volume reached 150-300 mm^3, the tumor-bearing nude mice were randomly grouped. Subsequently, the animals in each group were administered, and the day of the first administration was defined as day 1 of the test.
Administration frequency: once a day.
General state observation: observation time and frequency: once a day; observation indexes or contents: including but not limited to administration location, appearance and signs, general behavioral activities, mental status, death and other abnormal performance of the animals. The animals were euthanized at the end of the test.
Tumor volume calculation: V=½×long diameter×short diameter^2 (mm^3).

A short description of data set [2]: Analysis regarding therapeutic safety window. The settings on record: in vivo, oral, 5 days.
Data set [3] relates to NCI-H358-derived xenograft tumor. Description: Pharmacodynamics study of NCI-H358-derived xenograft tumor model, combination with Afatinib or Trametinib (test 10). The note with it: i.g. QD×21 days, 3-2 10 mg/kg, Afatinib 10 mg/kg, Trametinib 0.1 mg/kg. In kind it is in vivo, nude mice. On the procedure:
Animal species and number: Balb/c Nude; 6 animals per group. Test samples: […] Test groups: blank solvent control group; […] NCI-H358 tumor cells in logarithmic growth phase were cultured in vitro and collected, and inoculated subcutaneously into the right back of nude mice at a quantity of 5×10^6 cells/each. When the tumor volume reached 150-300 mm^3, the tumor-bearing nude mice were randomly grouped. Subsequently, the animals in each group were administered, and the day of the first administration was defined as day 1 of the test. Administration frequency: once a day. General state observation: observation time and frequency: once a day; observation indexes or contents: including but not limited to administration location, appearance and signs, general behavioral activities, mental status, death and other abnormal performance of the animals. The animals were euthanized at the end of the test. Tumor volume calculation: V=½×long diameter×short diameter^2 (mm^3).

The test system of data set [4] is NCI-H358. Description: Cell proliferation inhibitory activity on NCI-H358, 3D model test (agarose colony formation). In kind it is cell-based. Put shortly:
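NCI-H358 cells in soft agarose over a high-concentration agarose base were incubated overnight at 37 °C, then given serially diluted compound in RPMI 1640, with medium changes during CO2 incubation. Colonies were stained with NBT and counted, and IC50 for proliferation inhibition was derived against solvent control.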

Data set [5] is described as follows: Safety test for repeated administration for 14 days in SD rats. In kind it is in vivo. The settings on record: oral gavage once a day for 14 days, 50, 150, 400 mg/kg. The protocol: (§1) Test samples: Compound 3-2, and Compound 3-6.
(§2) Animal species and number: SD rat; 6 animals per group (half male and half female).
(§3) Administration mode: oral administration by gavage.
Animal grouping and administration dose: vehicle blank group, Compound 3-2 group (50 mg/kg, 150 mg/kg, 400 mg/kg), Compound 3-6 group (50 mg/kg, 150 mg/kg, 400 mg/kg).
Administration frequency: once a day for 14 days.
General clinical observations were performed 2 times a day (once in the morning and once in the afternoon) during the test period. Death, morbidity, respiration, secretions, feces, and diet, drinking situation and so on were observed, and the changes in body weight of the rats during the administration period were recorded. The contents of detailed clinical observation included but were not limited to behavioral activity, skin, coat, eyes, ears, nose, abdomen, external genitalia, anus, extremities, feet, and respiration. The animals in each group were euthanized at the end of administration period, and all animals were dissected and subjected to gross observation.

In data set [6] the test system is MIA PaCa-2 cells. The experiment in a line: Cell proliferation activity of MIA PaCa-2 by CellTiter-Glo reagent. The note with it: for IC50: Homo sapiens, MIA PaCa-2. In kind it is cell-based. In outline:
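Cells seeded at 2000-3000/well, incubated overnight, then exposed to compound gradient dilutions in DMEM for 72 h at 37° C, 5% CO2. Viability read by CellTiter-Glo luminescence; IC50 fitted from the proliferation inhibition curve.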

A short description of data set [7]: Acute toxicity test, single oral dose in SD rats. The data set is classed as in vivo. The settings on record: SD rats, single oral gavage, 500, 1000, 2000 mg/kg. On the procedure: as §1, §2, §3
Animal grouping and administration dose: vehicle blank group, Compound 3-2 group (500 mg/kg, 1000 mg/kg, 2000 mg/kg), Compound 3-6 group (500 mg/kg, 1000 mg/kg, 2000 mg/kg).
Administration frequency: once.
Death, morbidity, respiration, secretions, feces, and diet, drinking situation and so on were observed, and the changes in body weight of the rats during the administration period were recorded. The contents of detailed clinical observation included but were not limited to behavioral activity, skin, coat, eyes, ears, nose, abdomen, external genitalia, anus, extremities, feet, and respiration. The animals in each group were euthanized at the end of observation period, and all animals were dissected and subjected to gross observation.

For orientation: MTD means the highest dose tested that stayed within the study's limit of toxicity. `C=CC(=O)N1CCN(c2nc(=O)n(-c3c(C)ccnc3C(C)C)c3nc(-c4ccccc4C=C)c(Cl)cc23)[C@@H](C)C1` [Compound 3-2]: the “Tumor inhibition rate (%)” value in data set [1] is listed as “+++ (“+++” represents a tumor inhibition rate of >140%)”; in data set [3], “++ (“++” represents a tumor inhibition rate of 130%˜200%)”. In addition, the “therapeutic safety window: ratio of toxic dose to effective dose” value in data set [2] is on record as “greater than 80”. In addition, in data set [4] (3D model test), the “anti-cell proliferation activity against KRAS G12C mutant type cells NCI-H358 (in words)” value is reported as “significant anti-cell proliferation activity”. The IC50 in data set [4] (Homo sapiens, NCI-H358, 3D agarose colony formation, NBT staining) was below 50 nM; in data set [6] (72 h, CellTiter-Glo, read-out: IC50 value of cell proliferation inhibitory activity of the compound on MIA PaCa-2), below 50 nM; in data set [6] (test 12, method of test 2, read-out: IC50 of proliferation inhibitory activity of the compound on MIA Paca-2 cell line), at most 15 nM. In addition, the “water and food intake, activity and body weight during the administration period (in words)” value in data set [5] is “no significant abnormality was showed”. Besides, the “anti-cell proliferation activity against KRAS G12C mutant type cells MIA PaCa-2 (in words)” value in data set [6] (72 h, CellTiter-Glo) is “significant anti-cell proliferation activity”. The “proliferation inhibitory activity on MIA Paca-2 cell line compared with Compound TM-2 (in words)” value in data set [6] (test 12) is reported as “remarkable better”. Also, in data set [7], the “death or morbidity after single dose (in words)” value is listed as “No animals in each group were dead or close to death”. In data set [7] (both sexes, rat, in vivo, read-out: maximum tolerated dose (MTD)), the MTD is at least 2000 mg/kg.
